One data set has as its system Escherichia coli 25922. Kind of data set: MIC against E. coli 25922 after incubation of the peptide with mouse serum, gastric juice, small intestinal juice or PBS. Format: cell-based. The following applies: for MIC after incubation with gastric juice (GAJ), 1h: mouse gastric juice (stomach tissue + PBS pH 2.0, w/w 1:1, supernatant) mixed with peptide v/v 1:1, peptide 1.28 mM, MIC = lowest concentration killing >95% of cells; for MIC after incubation with serum, 1h / MIC after incubation with serum, 4h / MIC after incubation with serum, 8h: mouse serum mixed with peptide v/v 4:1, 1.28 mM; for Effect of the serum environment on antimicrobial activity: mouse serum, 1-8 h incubation, read-out MIC vs E. coli 25922; for MIC after incubation with small intestinal juice (SIJ), 1h: mouse small intestine contents + PBS pH 7.0 (w/w 1:9, supernatant) mixed with peptide v/v 1:1, 1.28 mM; for MIC after incubation in PBS2.0, 1h / MIC after incubation in PBS2.0, 4h / MIC after incubation in PBS2.0, 8h: phosphate-buffered saline pH 2.0, 37°C; for MIC after incubation in PBS7.0, 1h / MIC after incubation in PBS7.0, 4h / MIC after incubation in PBS7.0, 8h: phosphate-buffered saline pH 7.0, 37°C. On the procedure:
FIGURE 2 (a) Schematic diagram of the experimental scheme. Red and green arrows indicate the number of oral administrations and corresponding time points, respectively. (b) The experimental group design. (c) R7I MIC changes after incubation with serum, gastric juice, and small intestine fluid against Escherichia coli 25922. Minimum inhibitory concentrations (MICs, μM) were determined as the lowest peptide concentrations that killed greater than 95% of the bacterial cells. A value >64 indicates no detectable antibacterial activity at 64 μM. GAJ, gastric juice; SIJ, small intestinal juice; PBS2.0 and PBS7.0, phosphate‐buffered saline (pH = 2.0 or pH = 7.0); E. coli, Escherichia coli 25922 TEXT PRINTED IN THE PICTURE: (c) R7I + GAJ + E. coli: 1h: 2; 4h: 2; 8h: 2 | (c) R7I + SIJ + E. coli: 1h: 2; 4h: 4; 8h: 4 | (c) R7I + Serum + E. coli: 1h: 2; 4h: 2; 8h: 2 | (c) Melittin + GAJ + E. coli: 1h: >64; 4h: >64; 8h: >64 | (c) Melittin + SIJ + E. coli: 1h: >64; 4h: >64; 8h: >64 | (c) Melittin + Serum + E. coli: 1h: 4; 4h: 8; 8h: 8 | (c) R7I + PBS2.0 + E. coli: 1h: 2; 4h: 2; 8h: 2 | (c) R7I + PBS7.0 + E. coli: 1h: 2; 4h: 2; 8h: 2 | (c) Melittin + PBS2.0 + E. coli: 1h: 2; 4h: 2; 8h: 2 | (c) Melittin + PBS7.0 + E. coli: 1h: 2; 4h: 2; 8h: 2
The C57BL/6 male mice aged 6 weeks were provided by Liaoning Changsheng Biotechnology Co., Ltd., China and euthanized at 10:00 am. The serum was collected and mixed with R7I (v/v = 4:1) to give a final peptide concentration of 1.28 mM. The stomach (cut in half) and the contents of the entire small intestine of the mice were collected and placed in a sterile eppendorf tube. Sterile PBS was added to gastric tissue (w/w = 1:1, pH = 2.0) and small intestine contents (w/w = 1:9, pH = 7.0), and mixed thoroughly by shaking. The mixture was centrifuged to obtain the supernatant as gastric juice and small intestine juice. R7I was dissolved with the corresponding pH PBS. The prepared gastric and small intestine fluids were then mixed separately with R7I (v/v = 1:1) to give a final peptide concentration of 1.28 mM. Melittin was used here as a control. The peptide mixture was incubated in a 37°C incubator for 1, 4 and 8 h. Finally, the minimum inhibitory concentrations (MICs) test was performed to verify peptide activity with Escherichia coli 25922.[18]

Data set [1] concerns pepsin, trypsin, chymotrypsin, and proteinase K. The following applies: in vitro; cited from earlier work.
For data set [2] the following is noted: earlier research; cited from earlier work. The source says: Importantly, compared with other anti‐proteolytic peptides containing unnatural amino acids, R7I was completely composed of natural amino acids and had dramatic resistance to a high concentration of protease hyd ...
Data set [3] deals with E. coli ATCC 25922 bacterial enteritis model in mice. The data set can be described thus: Bacterial enteritis model: antioxidant function of the liver. The data set is classed as in vivo, C57BL/6 male mice. The following applies: oral R7I (20, 30, 40 mg/kg) or colistin sulfate 20 mg/kg; vs control group; n = 6. On the procedure:
(§1) The mice were divided into six groups randomly: (1) the control group (E. coli + normal saline); the administration group (E. coli + R7I) is set to three concentration gradients: (2) 20 mg/kg, (3) 30 mg/kg, and (4) 40 mg/kg of body weight; (5) the antibiotic group (E. coli + colistin sulfate), 20 mg/kg of body weight; and (6) the blank group with only normal saline (Figure 2b).
(§2) The blank group was gavaged with 200 μl of saline, and all other groups were gavaged twice with E. coli ATCC 25922 (200 μl) once a day (d1‐2). R7I at different concentrations and colistin sulfate were given twice (12 h intervals) on the d3 and once on d4‐5 by oral administration. Correspondingly, an equal amount of saline was given to the blank and control groups in the same way. On day 6, all mice were euthanized by cervical dislocation under full anesthesia with isoflurane.
Total antioxidant capacity (T‐AOC), superoxide dismutase (SOD), glutathione peroxidase (GSH‐Px), malondialdehyde (MDA), and catalase (CAT) enzyme activities in the liver were determined using commercially available kits (Nanjing Jiancheng Bioengineering Institute, Nanjing, China) according to the manufacturer's instructions.

For data set [4] the test system is unchanged. Kind of data set: Bacterial enteritis model: serum biochemical indices. Format: in vivo, C57BL/6 male mice. The following applies: other doses of R7I (30, 40 mg/kg) and colistin sulfate 20 mg/kg, oral. The protocol: as §1, §2
Serum biochemical indices of alanine aminotransferase (ALT), aspartate aminotransferase (AST), alkaline phosphatase (ALP), total bilirubin (TBIL), cholinesterase (CHE), creatinine (CREA), creatine kinase (CK), urea nitrogen (BUN), lactate dehydrogenase (LDH), total protein (TP), albumin (ALB), and globulin (GLB) were measured by the automatic biochemical analyzer (Roche, Cobus‐Mira‐Plus, Roche Diagnostic System Inc., Basel, Switzerland).

For data set [5] the test system is unchanged. The data set can be described thus: Bacterial enteritis model: serum D-lactic acid, diamine oxidase, SIgA (ELISA). The data set is classed as in vivo, C57BL/6 male mice. The following applies: n = 6. On the procedure: C57BL/6 male mice that were 6 weeks old were provided by Liaoning Changsheng Biotechnology Co., Ltd., China. All mice (20.00 ± 2.00 g, 6 weeks old) were randomly divided into 6 groups (n = 12), and they were fed adaptively for 3 days. During the whole experiment, mice can get clean water and a laboratory standard diet ad libitum, under controlled environmental conditions (40%–60% relative humidity, 25 ± 2°C temperature; lighting cycle, 12 h/d). The standard lab diet contained 18% crude protein, 4% crude fat, 5% crude fiber, 8% ash, and 10% moisture.
as §1
Based on the results of the pre‐experiment, we determined the appropriate concentration of the bacteria. The strain E. coli ATCC 25922 frozen at −20°C was incubated overnight in LB medium (37°C, 220r). The bacterial broth was transferred to a new LB medium at a ratio of 1:100 for 3–5 h to reach the logarithmic growth period. The bacterial precipitate was centrifuged and washed three times with saline to adjust the colony count to 2.0 × 10^9 CFU/ml.
as §2
To detect the content of diamine oxidase (DAO), D‐lactic acid, and secretory immunoglobulin A (SlgA) in serum, using mouse ELISA kit instruction (Alphabio, Tianjin, China).
For orientation: An ELISA detects its analyte on a solid surface through an enzyme-linked reagent.

Setting [6] is: mouse gastric juice (PBS pH 2.0, w/w 1:1) mixed with peptide v/v 1:1, 1.28 mM, 37°C, 4 h, then MIC vs E. coli 25922.
Setting [7] is: 37°C, then MIC vs E. coli 25922.
Setting [8] is: 37°C, 4 h, then MIC vs E. coli 25922.
[9] abbreviates: 37°C, 8 h, then MIC vs E. coli 25922.
Setting [10] is: mouse small intestine contents + PBS pH 7.0 (w/w 1:9) mixed with peptide v/v 1:1, 1.28 mM, 37°C, 8 h, then MIC vs E. coli 25922.
Where [11] appears, read: oral R7I 20, 30, 40 mg/kg or colistin sulfate 20 mg/kg, vs control group, p < 0.05 in most treatment groups, best in 20 mg/kg R7I.

Values after ≈ are worked out from the molar mass of the structure shown. Ends that are not written are not given here. Bounds are passed on as bounds.

Regarding IRPIIRPIIRPIIRPIIRPIIRPIIRPI-NH2 [R7I], the “MIC after incubation with gastric juice (GAJ), 4h” value against Escherichia coli 25922 (setting [6]) is 2 µM. Further, in the data set on Escherichia coli 25922 (setting [7]), the “MIC after incubation with gastric juice (GAJ), 1h” value came to 2 µM; the “MIC after incubation with serum, 1h” value was 2 µM; the “MIC after incubation with small intestinal juice (SIJ), 1h” value is 2 µM. Besides, the “MIC after incubation with serum, 4h” value in the data set with Escherichia coli 25922 (setting [8]) stood at 2 µM. In the data set on Escherichia coli 25922 (setting [9]), the “MIC after incubation with serum, 8h” value worked out at 2 µM. The “Effect of the serum environment on antimicrobial activity” value in the data set on Escherichia coli 25922 (37°C) was “no negative effect”. In the data set on Escherichia coli 25922 (setting [10]), the “MIC after incubation with small intestinal juice (SIJ), 8h” value is 4 µM. In the data set on Escherichia coli 25922 (then MIC vs E. coli 25922), the “MIC after incubation in PBS2.0, 1h” value turned out to be 2 µM and the “MIC after incubation in PBS7.0, 1h” value was 2 µM. For the same compound, in the data set with Escherichia coli 25922 (4 h, then MIC vs E. coli 25922), the “MIC after incubation in PBS2.0, 4h” value worked out at 2 µM and the “MIC after incubation in PBS7.0, 4h” value is 2 µM. Further, in the data set on Escherichia coli 25922 (8 h, then MIC vs E. coli 25922), the “MIC after incubation in PBS2.0, 8h” value worked out at 2 µM and the “MIC after incubation in PBS7.0, 8h” value was 2 µM. Besides, the “Resistance to pepsin, trypsin, chymotrypsin, and proteinase K” value in data set [1] was “excellent resistance”. The Cytotoxicity entry in data set [2] was “low cytotoxicity”.
colistin sulfate: the “MDA levels in the liver” value in data set [3] is “significantly dropped”. In addition, in data set [4], the “Serum CREA level” value is “little effect (or even an increasing trend)” and the “Serum LDH level” value is “little effect (or even an increasing trend)”. Further, in data set [4] (p < 0.05), the “Serum AST level” value was “decrease” and the “Serum TBIL level” value is given as “decrease”. For the same compound, in data set [4] (p > 0.05), the “Serum ALT level” value is recorded as “decrease”. Further, in data set [5] (setting [11]), the “Serum D-lactic acid (DLA) level” value is “significantly decreased” and the “Serum diamine oxidase (DAO) level” value is given as “significantly decreased”. For the same compound, the “Serum secreted immunoglobulin A (SlgA) level vs control group” value in data set [5] (partial dose concentrations, oral) is listed as “raise secreted immunoglobulin A (SlgA) levels compared to the control group, without statistical significance”.
`CC[C@H](C)[C@H](NC(=O)CN)C(=O)NCC(=O)N[C@@H](C)C(=O)N[C@H](C(=O)N[C@@H](CC(C)C)C(=O)N[C@@H](CCCCN)C(=O)N[C@H](C(=O)N[C@@H](CC(C)C)C(=O)N[C@H](C(=O)N[C@H](C(=O)NCC(=O)N[C@@H](CC(C)C)C(=O)N1CCC[C@H]1C(=O)N[C@@H](C)C(=O)N[C@@H](CC(C)C)C(=O)N[C@H](C(=O)N[C@@H](CO)C(=O)N[C@@H](Cc1c[nH]c2ccccc12)C(=O)N[C@H](C(=O)N[C@@H](CCCCN)C(=O)N[C@@H](CCCNC(=N)N)C(=O)N[C@@H](CCCCN)C(=O)N[C@@H](CCCNC(=N)N)C(=O)N[C@@H](CCC(N)=O)C(=O)N[C@@H](CCC(N)=O)C(N)=O)[C@@H](C)CC)[C@@H](C)CC)[C@@H](C)O)[C@@H](C)O)C(C)C)C(C)C` [Melittin]: in the data set on Escherichia coli 25922 (setting [6]), the “MIC after incubation with gastric juice (GAJ), 4h” value is above 64 µM. In the data set on Escherichia coli 25922 (mouse gastric juice (PBS pH 2.0, w/w 1:1) mixed with peptide v/v 1:1, 1.28 mM, 37°C, 8 h, then MIC vs E. coli 25922), the “MIC after incubation with gastric juice (GAJ), 8h” value was above 64 µM. Also, in the data set with Escherichia coli 25922 (setting [7]), the “MIC after incubation with gastric juice (GAJ), 1h” value was above 64 µM; the “MIC after incubation with serum, 1h” value worked out at 4 µM; the “MIC after incubation with small intestinal juice (SIJ), 1h” value was above 64 µM. Further, in the data set with Escherichia coli 25922 (setting [8]), the “MIC after incubation with serum, 4h” value turned out to be 8 µM. Also, the “MIC after incubation with serum, 8h” value against Escherichia coli 25922 (setting [9]) worked out at 8 µM. Moreover, the “Effect of the serum environment on antimicrobial activity” value with Escherichia coli 25922 (37°C) was “slightly compromised”. The “MIC after incubation with small intestinal juice (SIJ), 4h” value with Escherichia coli 25922 (mouse small intestine contents + PBS pH 7.0 (w/w 1:9) mixed with peptide v/v 1:1, 1.28 mM, 37°C, 4 h, then MIC vs E. coli 25922) is above 64 µM. Further, the “MIC after incubation with small intestinal juice (SIJ), 8h” value with Escherichia coli 25922 (setting [10]) was above 64 µM. Also, in the data set on Escherichia coli 25922 (then MIC vs E. coli 25922), the “MIC after incubation in PBS2.0, 1h” value came out at 2 µM (≈ 5.69 µg/mL) and the “MIC after incubation in PBS7.0, 1h” value worked out at 2 µM (≈ 5.69 µg/mL). For the same compound, in the data set on Escherichia coli 25922 (4 h, then MIC vs E. coli 25922), the “MIC after incubation in PBS2.0, 4h” value worked out at 2 µM (≈ 5.69 µg/mL) and the “MIC after incubation in PBS7.0, 4h” value was 2 µM (≈ 5.69 µg/mL). In addition, in the data set on Escherichia coli 25922 (8 h, then MIC vs E. coli 25922), the “MIC after incubation in PBS2.0, 8h” value is 2 µM (≈ 5.69 µg/mL) and the “MIC after incubation in PBS7.0, 8h” value worked out at 2 µM (≈ 5.69 µg/mL). Further, the “Activity after incubation with small intestinal fluid for 1 min” value in the data set on Escherichia coli 25922 (small intestinal fluid, 1 min, unused data) was “inactivated”.
